Experimental data reported in patent US7736909B2, “Methods and compositions comprising capture agents” (Board of Regents, the University of Texas System, priority 2003, dated 2010).
Read-outs that look alike come from different tables or passages of the source. Non-standard residues stand in square brackets, D forms with d. Residues, ends and D or L forms follow the SMILES beside them. N(4-Sulfamoylphenethyl)Gly = NS(=O)(=O)c1ccc(CCNCC(=O)O)cc1; Gly(N-piperonyl) = O=C(O)CNCc1ccc2c(c1)OCO2; Gly(N-CH2CH2OH) = O=C(O)CNCCO; Nlys = NCCCCNCC(=O)O

What was measured:
ubiquitin = ubiquitin (Homo sapiens, UniProt P0CG47); assay: pull-down of unlabeled ubiquitin by Tentagel-displayed peptide, probed with Texas Red-labeled anti-ubiquitin antibody; format: binding; conditions: semi-quantitative
Method: To study the behavior of the ubiquitin-targeted chimeric binding element in capture assays, the peptide was synthesized on Tentagel and employed in “pull-down” assays. Beads displaying NH2-[…], a control peptide NH2-[…], or no peptide at all, were incubated with the indicated concentration of unlabeled ubiquitin in the presence of a 1000-fold excess of E. coli proteins (FIG. 26B). After thorough washing, the beads were then probed with Texas Red-labeled anti-ubiquitin-labeled polyclonal antibodies to visualize the bound protein. […] In all cases, the level of fluorescence from the chimeric binding element-displaying beads was much higher than from either set of control beads (see FIG. 26C for a direct comparison).

His6Gal80 [1] = target: T1, His6Gal80 (Saccharomyces cerevisiae, UniProt P04387); assay: capturing dilute proteins with Tentagel-bound peptide; format: binding; conditions: peptide on Tentagel
T1 construct: His6 (N); made in house; host or cells: E. coli
T1 sequence (P04387 1-435): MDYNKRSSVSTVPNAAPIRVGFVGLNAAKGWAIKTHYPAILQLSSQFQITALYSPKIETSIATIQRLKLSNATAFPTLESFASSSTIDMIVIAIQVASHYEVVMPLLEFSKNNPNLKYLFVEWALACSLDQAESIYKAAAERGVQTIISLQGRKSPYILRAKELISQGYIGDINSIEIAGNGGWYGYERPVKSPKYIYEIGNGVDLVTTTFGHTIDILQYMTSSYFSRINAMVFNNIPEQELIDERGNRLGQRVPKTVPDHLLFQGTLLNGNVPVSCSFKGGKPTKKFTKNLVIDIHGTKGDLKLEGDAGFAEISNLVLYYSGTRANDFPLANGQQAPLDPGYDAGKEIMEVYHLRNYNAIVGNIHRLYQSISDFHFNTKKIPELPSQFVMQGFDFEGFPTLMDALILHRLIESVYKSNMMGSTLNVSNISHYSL
Method: Capturing Dilute Proteins. Approximately 0.014 g of Tentagel beads displaying Gal80 binding peptide was blocked with 10% milk overnight at 4° C. The beads were divided equally into 7 tubes and incubated with 500 μL of buffer containing various amounts of His6Gal80 protein (5 to 400 ng) for 2 hours at 4° C. After washing four times with TBST buffer and twice with PBS, gel loading dye was added directly to the beads and the amount of bound His6Gal80 was determined as described above. A second gel containing known amounts of pure His6Gal80 was analyzed simultaneously and was used as a standard to quantitate the amount of His6Gal80 retained on the beads.
Efficient capture of dilute proteins. In all of the above examples, the protein was loaded onto the peptide-coated bead at a relatively high concentration (300 nM) prior to dilution. Since the concentration of most proteins of interest in a biological sample will be lower, it was of interest to evaluate the ability of a Tentagel-bound peptide to capture a dimeric protein from more dilute solutions. […] After washing, the bound protein was detected by boiling the beads in denaturing loading buffer followed by SDS-PAGE/western, blot analysis of the resulting supernatant. […] Further dilution of the protein in this assay format exceeded the sensitivity of the western blot. […]

MBP-Mdm2 [2] = target: T2, MBP-Mdm2 (UniProt P0AEX9+Q00987); assay: isothermal titration calorimetry (ITC); format: binding, human
T2 construct: The domain of the human Mdm2 protein represented by residues 1-188 is a structurally characterized monomer; made in house; host or cells: E. coli BL21-RIL
T2 sequence (Q00987 whole entry, looked up, other chains not shown, the tested form may be a part): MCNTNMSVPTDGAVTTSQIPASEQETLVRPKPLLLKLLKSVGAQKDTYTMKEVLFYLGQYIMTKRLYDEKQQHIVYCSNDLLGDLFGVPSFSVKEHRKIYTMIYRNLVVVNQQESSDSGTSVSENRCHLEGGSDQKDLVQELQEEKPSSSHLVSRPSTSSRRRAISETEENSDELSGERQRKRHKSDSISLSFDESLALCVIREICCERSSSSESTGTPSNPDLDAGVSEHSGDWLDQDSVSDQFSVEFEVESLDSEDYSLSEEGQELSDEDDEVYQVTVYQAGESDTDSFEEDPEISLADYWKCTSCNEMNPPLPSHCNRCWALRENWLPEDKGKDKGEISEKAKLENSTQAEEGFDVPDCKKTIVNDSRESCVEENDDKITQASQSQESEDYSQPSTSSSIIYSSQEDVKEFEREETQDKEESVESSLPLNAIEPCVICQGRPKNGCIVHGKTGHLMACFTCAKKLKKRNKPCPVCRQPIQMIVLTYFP
Method: (§1) Isothermal titration calorimetry (ITC). ITC experiments were conducted on a MicroCal VP-ITC instrument. For the titration, 70 μM MBP-hmdm2 or 30 μM GST in PBS+10% DMSO was taken in the sample cell. To this, 15 μl aliquots of the peptoid solution in the same buffer were added from a computer-controlled 250 μl rotating syringe. The syringe was set at 400 rpm with intervals of 3 minutes between injections to attain baseline stabilization. The heat absorbed or released accompanying the titration was recorded as differential power (DP) by the instrument software. Experiments were carried out with C values between 1 and 400. The total heat recorded was then fitted via a non-linear least-squares minimization method. Titration of the ligand solution with the buffer alone gave the heats of dilution. Titration with MBP alone was recorded under identical conditions.

GST = target: T3, GST (Schistosoma japonicum, UniProt P08515); assay: isothermal titration calorimetry (ITC); format: binding; conditions: in solution; read-out: equilibrium dissociation constant, ITC
T3 construct: made in house; host or cells: E. coli BL21-RIL
T3 sequence (P08515 whole entry): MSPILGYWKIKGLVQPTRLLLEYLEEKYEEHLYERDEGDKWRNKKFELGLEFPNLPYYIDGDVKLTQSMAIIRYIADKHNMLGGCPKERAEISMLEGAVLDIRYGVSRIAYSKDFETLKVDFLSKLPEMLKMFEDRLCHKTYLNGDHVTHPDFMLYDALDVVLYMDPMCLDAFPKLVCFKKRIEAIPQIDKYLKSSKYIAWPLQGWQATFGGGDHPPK
Method: as §1

MBP = MBP (Escherichia coli, UniProt P0AEX9); assay: isothermal titration calorimetry (ITC), MBP alone; format: binding; conditions: in solution
Method: as §1

MBP-Mdm2 [3] = target: T2, MBP-Mdm2; format: binding, human
Method: Five milligrams of TentaGel beads (displaying the respective hit sequences, Nlys-Nbsa-Nlys-Nser-Nbsa-Npip-Nbsa-Npip-CONH2 and Nbsa-Nlys-Nbsa-Npip-Nlys-CONH2 or a random sequence Npip-Nser-Nbsa-Nall-Nlys-Npip-CONH2) were equilibrated in phosphate-buffered saline (PBS) for 60 minutes. The buffer was removed and the beads were blocked with 2% BSA for 60 minutes to saturate any non-specific binding sites. The beads were then washed with PBS (3 times), and incubated with 500 nM (unless indicated otherwise) of a Texas Red-labeled protein (MBP-MDM2 or GST) in 2% BSA (in 1×TBST buffer), in a 300 μL volume for 60 minutes. The beads were washed with TBST six times to remove any unbound protein and photographed under a fluorescence microscope. Studies that employed native (unlabeled) proteins were performed as follows. Ten milligrams of beads displaying the peptoid were exposed to 1 μM protein in the presence of 1000-fold excess E. coli lysate, 0.2% Tween-20 and 0.2 M NaCl in a total volume of 2 ml at RT for 2 hrs. The beads were washed three times with TBST (20 mM Tris buffered saline+0.1% Tween-20). Ten microliters of 2×SDS-PAGE loading dye was then added directly to these beads and they were boiled for 10 mins.
To probe the binding chemistry of chimeric binding ligand formula 2 on a solid support, which is more relevant to the issue of creating high affinity protein capture agents, TentaGel beads were prepared that display either chalcone formula 1 alone, the 10 mer peptoid NH2-Nlys-Npip-Nlys-Nser-Nlys-Nlys-Nlys-Nlys-Npip-Npip alone, or the chalcone-peptoid chimeric binding element of formula 2. In the experiment shown in FIG. 24D, the beads and the Texas Red-labeled proteins (100 nM) indicated in the figure were incubated under demanding buffer conditions (1M NaCl and 1% Tween-20 in the presence of a 100-fold excess of E. coli proteins), then washed thoroughly. Two populations of beads were then mixed in a 1:1 ratio and photographed under a fluorescence microscope to provide a direct comparison.
After thorough washing, the beads were photographed in the fluorescence microscope using identical settings in each case.

His6Gal80 [4] = target: T1, His6Gal80; assay: lysate experiment: specificity of capture from E. coli lysate (silver stain); format: binding; conditions: Gal80 5% of total protein, silver staining
Method: Lysate Experiment. E. coli lysate was prepared by growing BL21 cells to an OD600 of 0.8. Cells were lysed by sonication in PBS buffer. After sonication, triton X-100 was added to 1%. His6Gal80 was doped into the E. coli lysate (67 μg/mL) such that it constituted 5% of the total protein. Approximately 0.02 g of Tentagel beads on which the Gal80-binding peptide had been synthesized and deprotected were added to 300 μL of the E. coli lysate containing His6Gal80 and incubated for 2 hours at 4° C. The beads were washed four times for ten minutes each time at 4 with PBS buffer+1% triton X-100 at 150 mM NaCl at 4° C. and then twice with PBS buffer. GSTGal4 AD (activation domain) was pre-incubated with glutathione sepharose beads and then used as a positive control to pull-down His6Gal80 from the lysate under the same conditions. Gel loading dye was added directly to the beads, loaded onto a SDS polyacrylamide gel and analyzed by silver stain.
To address this point, the Gal80 bp/Gal80 pair was again employed. His6Gal80 was doped into an E. coli lysate such that Gal80 represented 5% of the total protein concentration. This solution was then incubated with the Tentagel-bound Gal80 bp followed by thorough washing to remove any unbound material. The composition of the proteins captured by the peptide was then addressed by SDS-PAGE followed by silver staining. […]

solubility observations = format: physicochemical

## CC(C)C[C@H](NC(=O)CNC(=O)[C@@H](N)Cc1c[nH]c2ccccc12)C(=O)N[C@@H](CCCNC(=N)N)C(=O)N[C@@H](C)C(=O)N[C@@H](CC(C)C)C(=O)N[C@@H](CCC(=O)O)C(=O)N[C@@H](CO)C(=O)N[C@@H](CCCNC(=N)N)C(=O)N[C@@H](Cc1c[nH]c2ccccc12)C(=O)N[C@@H](CC(=O)O)C(=O)N[C@@H](CCCNC(=N)N)C(=O)N[C@@H](Cc1ccc(O)cc1)C(=O)N[C@@H](Cc1ccc(O)cc1)C(=O)N[C@@H](Cc1ccccc1)C(=O)O (H-WGLRALESRWDRYYF-OH; C-terminus assumed)
ubiquitin
  functional dissociation constant of immobilized chimeric binding element: at least in the low nanomolar range

## CSCC[C@H](NC(=O)[C@H](CC(=O)O)NC(=O)[C@H](CCC(N)=O)NC(=O)[C@H](CC(=O)O)NC(=O)[C@@H](N)Cc1ccc(O)cc1)C(=O)N[C@@H](CCC(N)=O)C(=O)N[C@@H](CC(N)=O)C(=O)N[C@@H](CC(N)=O)C(=O)N[C@H](C(=O)N[C@@H](Cc1ccccc1)C(=O)N[C@@H](CC(=O)O)C(=O)N[C@@H](CC(=O)O)C(=O)N[C@@H](CC(C)C)C(=O)N[C@@H](Cc1ccccc1)C(=O)N[C@@H](Cc1c[nH]c2ccccc12)C(=O)N[C@@H](CCCCN)C(=O)N[C@@H](CCC(=O)O)C(=O)NCC(=O)N[C@@H](Cc1c[nH]cn1)C(=O)N[C@@H](CCCNC(=N)N)C(=O)O)[C@@H](C)O [Ga180bp] (H-YDQDMQNNTFDDLFWKEGHR-OH; N-terminus and C-terminus assumed)
His6Gal80 [1]
  dissociation constant of immobilized peptide for Gal80 dimer: sub-nanomolar

## NCCCCNCC(=O)N(CC(=O)N(CCCCN)CC(=O)N(CCO)CC(=O)N(CCCCN)CC(=O)N(CCCCN)CC(=O)N(CCCCN)CC(=O)N(CCCCN)CC(=O)N(CC(=O)N(CC(N)=O)Cc1ccc2c(c1)OCO2)Cc1ccc2c(c1)OCO2)Cc1ccc2c(c1)OCO2 [NH2-Nlys-Npip-Nlys-Nser-Nlys-Nlys-Nlys-Nlys-Npip-Npip] (H-[Nlys][Gly(N-piperonyl)][Nlys][Gly(N-CH2CH2OH)][Nlys][Nlys][Nlys][Nlys][Gly(N-piperonyl)][Gly(N-piperonyl)]-NH2; N-terminus and C-terminus assumed)
MBP-Mdm2 [2]
  Kd: 378 µM

## NCCCCN(CC(N)=O)C(=O)CN(Cc1ccc2c(c1)OCO2)C(=O)CN(CCc1ccc(S(N)(=O)=O)cc1)C(=O)CN(CCCCN)C(=O)CNCCc1ccc(S(N)(=O)=O)cc1 [Nbsa-Nlys-Nbsa-Npip-Nlys-CONH2] (H-[N(4-Sulfamoylphenethyl)Gly][Nlys][N(4-Sulfamoylphenethyl)Gly][Gly(N-piperonyl)][Nlys]-NH2)
GST
  Kd: 62 µM

## NCCCCNCC(=O)N(CCc1ccc(S(N)(=O)=O)cc1)CC(=O)N(CCCCN)CC(=O)N(CCO)CC(=O)N(CCc1ccc(S(N)(=O)=O)cc1)CC(=O)N(CC(=O)N(CCc1ccc(S(N)(=O)=O)cc1)CC(=O)N(CC(N)=O)Cc1ccc2c(c1)OCO2)Cc1ccc2c(c1)OCO2 [Nlys-Nbsa-Nlys-Nser-Nbsa-Npip-Nbsa-Npip] (H-[Nlys][N(4-Sulfamoylphenethyl)Gly][Nlys][Gly(N-CH2CH2OH)][N(4-Sulfamoylphenethyl)Gly][Gly(N-piperonyl)][N(4-Sulfamoylphenethyl)Gly][Gly(N-piperonyl)]-NH2)
MBP-Mdm2 [2]
  Kd: 37 µM
MBP
  Kd: > 1000 µM
MBP-Mdm2 [3]; native protein 1 μM, 1000-fold excess E. coli proteins, Western blot
  MBP-Mdm2 protein retained by immobilized peptoid: about 10%

## DLQRDTNKGFHEMFDWDYQN [Ga180bpscram]
His6Gal80 [4]
  proteins retained from Gal80-doped E. coli lysate: No detectable proteins were retained

## NH2-Lys(Chalcone)-Nlys-Npip-Nlys-Nser-Nlys-Nlys-Nlys-Nlys-Npip-Npip [formula 2]
MBP-Mdm2 [2]; in solution, read-out: equilibrium dissociation constant (KD), ITC
  Kd: 1.3 µM
MBP-Mdm2 [2]; solution, ITC
  improvement in affinity relative to parent compound formula 1: at least 170 fold
MBP
  Kd: > 6000 µM
MBP-Mdm2 [3]; 100 nM protein, 1M NaCl, 1% Tween-20, 100-fold excess E. coli proteins
  solid phase MBP-Mdm2 affinity relative to components: higher affinity for Mdm2 than does either individual component of the chimera
MBP-Mdm2 [3]; 150 mM NaCl, 0.1% detergent, 100-fold excess E. coli proteins
  lowest protein concentration at which capture of Mdm2 was apparent: 10 nM

## Nmba-Nbsa-Nleu-Nlys-Npip-Nmba-Nleu-Nleu [random peptoid, reference compound]
MBP-Mdm2 [3]; 1000-fold excess E. coli proteins, Western blot
  native MBP-Mdm2 retained: No detectable MBP-Mdm2 protein was retained

## PREbp: Pre1 binding peptide isolated by phage display, free synthetic peptide before six polar amino acids were added (SHSTARGEQERAAVYLWFTYDHRSER)
Solubility observations
  solubility: insoluble
